Source: patent US20040242678A1, “Apolipo protein e secretion promoters” (priority 2001, published 2004)

Tests used:
C57BL/6J mice = test: ApoE increasing effect in mouse serum (SDS-PAGE of lipoprotein-containing fractions); type: in vivo; conditions: high fat diet containing 0.65% BO-653 for 5 weeks versus high fat diet with no BO-653, FIG. 2
Method: Seven-week-old C57BL/6J mice were divided into first group of three and second group of four. The animals of the first and second groups were fed a high fat diet containing no BO-653 and 0.65% BO-653, respectively. After 5 weeks of diet initiation, the animals were anesthetized with ether and their blood was individually drawn from vena cava descendens. Serum samples were prepared from the drawn blood and 100 μL of each of the samples was placed into a tube. To the tube, 900 μL of sodium bromide solution having 1.256 density was added, and the tube was centrifuged in TL-100 desk type ultracentrifuge at 100,000 rpm for 20 hours using TLA-100.2 rotor. Lipoprotein-containing fraction thus obtained was collected and treated with 10 w/v % trichloroacetic acid solution. The precipitate was collected and dissolved into 80 μL of solution for SDS-PAGE. 10 μL of the solution was subjected to 15 w/v % SDS-PAGE and the gels were stained with Coomassie brilliant blue. By comparing the bands with molecular weight markers, ApoE was identified.

[1] = system: foamed C57BL/6J mouse-derived macrophages; test: Intracellular cholesterol-removing effect in foamed macrophages (enzymatic total cholesterol measurement); type: cell-based; conditions: for Cholesterol Reduction (%) Means: 24 hours, relative to the vehicle (0 μmol/L = 100.0)
Method: (§1) 4.05 w/v % thioglycollate-elicited intraperitoneally exuded cells were prepared from C57BL/6J and ApoE-deficient mice. The cells were inoculated on 12-well plate at 1.0×10^6 cells/well. The cells were cultured at 37° C. under 5 vol % CO2. After 3 hours of culture, the culture medium was changed to a fresh one to remove inadhesive cells, leaving mouse-peritoneal macrophages in each of the wells. Next day, the mouse-peritoneal macrophages were cultured in a medium containing 50 μg of protein per mL of acetylated LDL for 24 hours to form foam cells.
(§2) To the wells containing the foamed C57BL/6J mouse-derived macrophages, 4,6-di-t-butyl-2,2-dipentyl-5-hydroxy-2,3-dihydrobenzofuran (BO-653) was added to final concentrations of 0, 3 and 10 μmol/L. After 24 hours of culture, the supernatants were collected to prepare samples for SDS-PAGE.
On the other hand, the foamed macrophages which were cultured in the presence of BO-653 and harvested at the same time as the collection of the supernatants were extracted with a mixed solvent of hexane/2-propanol (3:2 v/v) to obtain lipids. Then, the total amount of cholesterol in the lipids was measured using the enzymatic method described by Yoshiki Kawabe et al., “Oxidation-Induced Aggregation of Rabbit Low-Density Lipoprotein by Azo Initiator”, Achieves of Biochemistry and Biophysics 310, 489-496 (1994). We regarded the total amount of cholesterol as intracellular cholesterol content of the macrophages.

[2] = system: foamed C57BL/6J mouse-derived macrophages; test: ApoE secretion-promoting effect in foamed mouse peritoneal macrophages (Western blotting of supernatants); type: cell-based; conditions: BO-653 added at 3 and 10 μmol/L, 24 hours of culture, anti-mouse ApoE antibody, FIG. 1
Method: as §1, §2
The samples were subjected to 10 w/v % SDS-PAGE. Following the SDS-PAGE, the bands were transferred onto nitrocellulose papers using semi-drying method and blocked with TBS containing 10 w/v % skim milk and 0.1 vol % Tween-20. Rabbit anti-mouse ApoE-antibody (#K23100R, BIODESIGN) and peroxidase-labeled anti-rabbit IgG antibody (#7071-1, Cell Signaling TECHNOLOGY) were used as the first and secondary antibodies, respectively. ApoE was detected using chemoluminescence method (PIERCE).

CCCCCC1(CCCCC)Cc2c(cc(C(C)(C)C)c(O)c2C(C)(C)C)O1 [BO-653, 4,6-di-t-butyl-2,2-dipentyl-5-hydroxy-2,3-dihydrobenzofuran]
ApoE production in serum lipoprotein-containing fraction (C57BL/6J mice): increased ApoE production | Cholesterol Reduction (%) Means ([1]; BO-653 3 μmol/L): 132.6% | Cholesterol Reduction (%) Means ([1]; BO-653 10 μmol/L): 145.9% | intracellular cholesterol content of macrophages ([1]; treatment with BO-653, 24 hours, result in words): decrease in intracellular cholesterol content | saccharified-ApoE expression in culture supernatant [2]: increased saccharified-ApoE expression
